Measurements published in ChEMBL document CHEMBL5653631, “A Potent and Selective ULK1 Inhibitor Suppresses Autophagy and Sensitizes Cancer Cells to Nutrient Stress” (iScience, 2018).

Columns and labels:
[1] = target: Serine/threonine-protein kinase 17A (Homo sapiens, UniProt Q9UEE5); assay: Inhibition of human recombinant DRAK1
[2] = target: T1, Serine/threonine-protein kinase PLK4 (Homo sapiens) (UniProt O00444); assay: Inhibition of human recombinant PLK4 at 40 nM in presence of ATP by radiometric assay relative to control
T1 sequence (whole entry): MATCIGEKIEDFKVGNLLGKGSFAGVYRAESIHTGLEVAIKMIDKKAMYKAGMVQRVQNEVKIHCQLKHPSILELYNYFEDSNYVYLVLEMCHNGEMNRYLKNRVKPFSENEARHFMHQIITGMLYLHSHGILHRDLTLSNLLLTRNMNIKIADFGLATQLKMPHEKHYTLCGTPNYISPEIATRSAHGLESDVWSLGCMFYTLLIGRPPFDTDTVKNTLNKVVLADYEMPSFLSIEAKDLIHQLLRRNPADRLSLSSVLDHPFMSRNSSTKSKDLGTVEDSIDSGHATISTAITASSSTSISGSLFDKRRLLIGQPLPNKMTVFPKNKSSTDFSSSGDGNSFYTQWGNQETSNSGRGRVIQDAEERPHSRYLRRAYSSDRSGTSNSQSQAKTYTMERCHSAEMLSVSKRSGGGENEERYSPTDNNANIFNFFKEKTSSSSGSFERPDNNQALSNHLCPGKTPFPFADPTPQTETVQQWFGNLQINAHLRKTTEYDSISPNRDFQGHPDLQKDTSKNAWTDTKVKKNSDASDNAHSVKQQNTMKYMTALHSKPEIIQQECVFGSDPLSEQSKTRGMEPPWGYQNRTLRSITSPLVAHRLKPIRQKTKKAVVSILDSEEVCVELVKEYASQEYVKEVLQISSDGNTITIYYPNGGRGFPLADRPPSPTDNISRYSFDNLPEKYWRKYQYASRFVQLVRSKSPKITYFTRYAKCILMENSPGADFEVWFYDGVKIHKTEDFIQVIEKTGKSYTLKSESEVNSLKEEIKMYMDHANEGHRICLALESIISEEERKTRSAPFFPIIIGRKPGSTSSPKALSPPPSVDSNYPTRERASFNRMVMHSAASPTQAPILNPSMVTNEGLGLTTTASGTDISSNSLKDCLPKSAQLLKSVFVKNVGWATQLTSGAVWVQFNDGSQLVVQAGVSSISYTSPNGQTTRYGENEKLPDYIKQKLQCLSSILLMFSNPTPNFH

[3] = target: Protein-tyrosine kinase 6 (Homo sapiens) (UniProt Q13882); assay: Inhibition of human recombinant BRK at 40 nM related to control ULK1
[4] = target: Calcium/calmodulin-dependent protein kinase kinase 1 (Homo sapiens) (UniProt Q8N5S9); assay: Inhibition of human recombinant CaMKK1 at 40 nM related to control ULK1
[5] = target: Ribosomal protein S6 kinase alpha-6 (Homo sapiens) (UniProt Q9UK32); assay: Inhibition of human recombinant RSK4 at 40 nM related to control ULK1
[6] = target: Calcium/calmodulin-dependent protein kinase type 1D (Homo sapiens) (UniProt Q8IU85); assay: Inhibition of human recombinant CaMK1d at 15 nM in presence of ATP by radiometric assay relative to control
[7] = target: T2, Homeodomain-interacting protein kinase 4 (Homo sapiens) (UniProt Q8NE63); assay: Inhibition of human recombinant HIPK4 at 15 nM related to control ULK1
T2 sequence (whole entry): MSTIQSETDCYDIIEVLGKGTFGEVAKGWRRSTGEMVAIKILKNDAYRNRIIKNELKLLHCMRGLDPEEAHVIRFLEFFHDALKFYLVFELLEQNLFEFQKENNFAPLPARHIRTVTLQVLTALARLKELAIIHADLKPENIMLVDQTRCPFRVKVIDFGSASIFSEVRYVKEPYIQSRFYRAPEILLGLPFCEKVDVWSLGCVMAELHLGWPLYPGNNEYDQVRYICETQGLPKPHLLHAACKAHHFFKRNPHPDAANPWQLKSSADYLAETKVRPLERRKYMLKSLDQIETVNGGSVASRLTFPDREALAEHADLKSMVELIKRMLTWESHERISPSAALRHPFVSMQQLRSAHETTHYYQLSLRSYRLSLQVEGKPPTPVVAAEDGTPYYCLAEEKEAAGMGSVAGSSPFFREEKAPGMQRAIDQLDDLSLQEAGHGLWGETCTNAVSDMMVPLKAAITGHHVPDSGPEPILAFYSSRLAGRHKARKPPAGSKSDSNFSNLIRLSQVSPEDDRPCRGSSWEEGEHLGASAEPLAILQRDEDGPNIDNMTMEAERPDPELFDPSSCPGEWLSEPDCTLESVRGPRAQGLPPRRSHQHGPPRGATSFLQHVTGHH

[8] = target: SRSF protein kinase 2 (Homo sapiens) (UniProt P78362); assay: Inhibition of human recombinant SRPK2 at 15 nM related to control ULK1
[9] = target: Serine/threonine-protein kinase MRCK beta (Homo sapiens) (UniProt Q9Y5S2); assay: Inhibition of human recombinant MRCKb at 500 nM in presence of ATP by radiometric assay relative to control
[10] = target: NT-3 growth factor receptor (Homo sapiens) (UniProt Q16288); assay: Inhibition of human recombinant TRKC at 500 nM in presence of ATP by radiometric assay relative to control

Chain of Calcium/calmodulin-dependent protein kinase kinase 1 (Homo sapiens) (Q8N5S9 whole entry, looked up): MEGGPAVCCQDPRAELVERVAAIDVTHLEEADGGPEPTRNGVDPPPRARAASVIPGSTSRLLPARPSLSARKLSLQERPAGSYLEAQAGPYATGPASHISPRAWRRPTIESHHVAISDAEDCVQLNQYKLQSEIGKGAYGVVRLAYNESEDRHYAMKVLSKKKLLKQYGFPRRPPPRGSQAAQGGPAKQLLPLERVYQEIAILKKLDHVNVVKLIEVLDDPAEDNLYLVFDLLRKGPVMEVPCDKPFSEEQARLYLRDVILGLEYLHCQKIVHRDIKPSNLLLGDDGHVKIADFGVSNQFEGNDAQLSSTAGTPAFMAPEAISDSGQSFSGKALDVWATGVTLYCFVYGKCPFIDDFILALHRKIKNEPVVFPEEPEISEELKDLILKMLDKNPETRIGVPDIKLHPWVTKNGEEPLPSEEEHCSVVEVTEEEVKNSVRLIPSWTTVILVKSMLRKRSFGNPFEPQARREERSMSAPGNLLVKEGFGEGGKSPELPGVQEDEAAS
Chain of Calcium/calmodulin-dependent protein kinase type 1D (Homo sapiens) (Q8IU85 whole entry, looked up): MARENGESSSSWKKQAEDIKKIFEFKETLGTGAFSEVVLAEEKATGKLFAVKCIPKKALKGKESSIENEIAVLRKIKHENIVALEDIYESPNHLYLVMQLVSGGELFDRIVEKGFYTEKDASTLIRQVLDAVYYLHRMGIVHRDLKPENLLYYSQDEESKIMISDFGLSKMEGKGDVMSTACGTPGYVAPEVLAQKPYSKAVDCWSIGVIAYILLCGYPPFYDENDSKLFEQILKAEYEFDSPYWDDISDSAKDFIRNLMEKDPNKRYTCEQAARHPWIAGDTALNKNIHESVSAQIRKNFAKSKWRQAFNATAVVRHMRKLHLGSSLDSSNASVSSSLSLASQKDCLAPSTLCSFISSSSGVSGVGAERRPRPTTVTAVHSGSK
Chain of Serine/threonine-protein kinase MRCK beta (Homo sapiens) (Q9Y5S2 whole entry): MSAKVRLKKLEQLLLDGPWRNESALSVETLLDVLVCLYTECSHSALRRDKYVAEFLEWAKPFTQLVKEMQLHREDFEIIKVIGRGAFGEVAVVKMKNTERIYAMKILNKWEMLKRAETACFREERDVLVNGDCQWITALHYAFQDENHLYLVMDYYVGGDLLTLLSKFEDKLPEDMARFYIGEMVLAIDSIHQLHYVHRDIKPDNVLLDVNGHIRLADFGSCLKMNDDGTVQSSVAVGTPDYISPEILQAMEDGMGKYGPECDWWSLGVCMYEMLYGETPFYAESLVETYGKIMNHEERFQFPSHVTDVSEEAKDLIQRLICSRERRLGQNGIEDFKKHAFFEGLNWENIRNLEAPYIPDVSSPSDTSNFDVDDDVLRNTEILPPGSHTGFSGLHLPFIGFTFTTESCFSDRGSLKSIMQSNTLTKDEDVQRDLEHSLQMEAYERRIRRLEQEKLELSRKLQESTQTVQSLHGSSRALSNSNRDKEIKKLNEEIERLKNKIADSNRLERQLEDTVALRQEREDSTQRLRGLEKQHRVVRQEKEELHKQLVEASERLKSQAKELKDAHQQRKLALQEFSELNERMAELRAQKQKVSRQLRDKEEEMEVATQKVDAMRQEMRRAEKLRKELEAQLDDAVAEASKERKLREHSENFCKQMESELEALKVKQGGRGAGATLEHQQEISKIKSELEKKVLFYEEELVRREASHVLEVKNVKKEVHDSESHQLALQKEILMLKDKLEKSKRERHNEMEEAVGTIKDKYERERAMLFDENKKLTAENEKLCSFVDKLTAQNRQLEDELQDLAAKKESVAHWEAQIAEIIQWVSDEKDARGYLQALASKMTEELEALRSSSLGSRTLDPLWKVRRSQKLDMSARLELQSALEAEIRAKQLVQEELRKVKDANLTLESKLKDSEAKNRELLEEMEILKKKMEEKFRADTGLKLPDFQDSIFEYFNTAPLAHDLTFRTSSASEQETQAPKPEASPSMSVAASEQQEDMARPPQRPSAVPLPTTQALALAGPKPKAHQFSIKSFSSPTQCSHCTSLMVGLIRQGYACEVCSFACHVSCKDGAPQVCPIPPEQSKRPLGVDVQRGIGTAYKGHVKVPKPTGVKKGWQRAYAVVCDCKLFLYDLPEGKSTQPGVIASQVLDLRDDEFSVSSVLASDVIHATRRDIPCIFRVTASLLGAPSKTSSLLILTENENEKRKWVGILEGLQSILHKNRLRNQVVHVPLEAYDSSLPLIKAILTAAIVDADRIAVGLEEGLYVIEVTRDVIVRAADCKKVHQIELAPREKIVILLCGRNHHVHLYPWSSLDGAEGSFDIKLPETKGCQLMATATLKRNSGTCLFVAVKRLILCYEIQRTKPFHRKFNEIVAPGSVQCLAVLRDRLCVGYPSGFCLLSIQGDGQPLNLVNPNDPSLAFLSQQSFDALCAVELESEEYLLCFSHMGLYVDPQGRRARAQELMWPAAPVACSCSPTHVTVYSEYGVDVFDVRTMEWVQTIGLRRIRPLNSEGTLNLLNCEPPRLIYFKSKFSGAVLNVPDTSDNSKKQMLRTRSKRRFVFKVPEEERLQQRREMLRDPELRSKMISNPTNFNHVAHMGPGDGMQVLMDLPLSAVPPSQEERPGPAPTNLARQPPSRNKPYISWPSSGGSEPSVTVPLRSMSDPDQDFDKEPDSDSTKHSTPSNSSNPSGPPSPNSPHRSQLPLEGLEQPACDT
Chain of SRSF protein kinase 2 (Homo sapiens) (P78362 whole entry, looked up): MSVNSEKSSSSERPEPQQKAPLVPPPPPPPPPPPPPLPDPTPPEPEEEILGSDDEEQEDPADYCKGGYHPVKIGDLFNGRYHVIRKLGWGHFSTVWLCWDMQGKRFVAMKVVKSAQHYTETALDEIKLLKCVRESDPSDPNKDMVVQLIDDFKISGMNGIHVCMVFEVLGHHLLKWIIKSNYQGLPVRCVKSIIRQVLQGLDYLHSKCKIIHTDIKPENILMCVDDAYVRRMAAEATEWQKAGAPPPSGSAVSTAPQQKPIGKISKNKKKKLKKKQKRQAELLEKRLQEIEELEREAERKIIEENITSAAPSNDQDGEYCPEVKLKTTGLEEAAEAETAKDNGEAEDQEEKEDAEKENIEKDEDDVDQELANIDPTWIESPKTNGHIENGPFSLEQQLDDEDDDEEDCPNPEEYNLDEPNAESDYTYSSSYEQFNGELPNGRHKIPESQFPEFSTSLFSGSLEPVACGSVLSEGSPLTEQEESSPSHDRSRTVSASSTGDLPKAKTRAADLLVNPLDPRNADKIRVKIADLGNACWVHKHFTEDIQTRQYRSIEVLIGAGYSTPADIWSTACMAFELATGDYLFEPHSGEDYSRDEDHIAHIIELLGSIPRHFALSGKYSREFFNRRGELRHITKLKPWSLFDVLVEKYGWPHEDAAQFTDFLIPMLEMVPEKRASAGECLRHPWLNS
Chain of Ribosomal protein S6 kinase alpha-6 (Homo sapiens) (Q9UK32 whole entry): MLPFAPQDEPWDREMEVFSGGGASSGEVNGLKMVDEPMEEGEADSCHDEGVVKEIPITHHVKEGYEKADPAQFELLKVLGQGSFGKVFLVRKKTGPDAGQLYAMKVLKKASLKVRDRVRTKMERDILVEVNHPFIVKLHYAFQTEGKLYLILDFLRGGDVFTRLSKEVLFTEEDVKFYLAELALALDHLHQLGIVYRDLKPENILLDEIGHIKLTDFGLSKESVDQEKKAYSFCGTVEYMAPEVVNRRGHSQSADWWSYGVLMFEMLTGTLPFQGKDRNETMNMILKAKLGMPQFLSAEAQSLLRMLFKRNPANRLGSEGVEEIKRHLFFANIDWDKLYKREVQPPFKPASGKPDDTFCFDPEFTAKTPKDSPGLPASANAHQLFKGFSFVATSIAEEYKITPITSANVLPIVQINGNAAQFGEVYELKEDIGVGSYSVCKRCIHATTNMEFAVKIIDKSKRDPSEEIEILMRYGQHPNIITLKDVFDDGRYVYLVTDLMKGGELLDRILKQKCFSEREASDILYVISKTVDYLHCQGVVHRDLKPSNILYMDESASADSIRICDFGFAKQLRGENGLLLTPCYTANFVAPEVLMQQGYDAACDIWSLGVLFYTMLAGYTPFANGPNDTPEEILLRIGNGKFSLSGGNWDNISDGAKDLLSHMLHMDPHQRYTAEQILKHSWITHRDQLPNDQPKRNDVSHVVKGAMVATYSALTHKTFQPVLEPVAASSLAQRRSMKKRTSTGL
Chain of Protein-tyrosine kinase 6 (Homo sapiens) (Q13882 whole entry, looked up): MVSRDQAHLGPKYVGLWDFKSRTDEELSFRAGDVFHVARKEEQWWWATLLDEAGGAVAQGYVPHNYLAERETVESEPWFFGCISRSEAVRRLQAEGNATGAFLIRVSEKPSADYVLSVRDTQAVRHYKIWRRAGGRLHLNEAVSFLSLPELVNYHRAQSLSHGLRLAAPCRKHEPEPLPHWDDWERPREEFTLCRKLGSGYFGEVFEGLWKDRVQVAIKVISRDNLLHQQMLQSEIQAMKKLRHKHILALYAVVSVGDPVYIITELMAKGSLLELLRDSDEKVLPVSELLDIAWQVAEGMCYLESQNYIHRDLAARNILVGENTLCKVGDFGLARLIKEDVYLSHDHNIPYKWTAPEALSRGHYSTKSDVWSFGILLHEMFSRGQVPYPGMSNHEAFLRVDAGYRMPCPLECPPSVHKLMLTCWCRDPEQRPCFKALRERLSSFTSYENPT
Chain of Serine/threonine-protein kinase 17A (Q9UEE5 whole entry): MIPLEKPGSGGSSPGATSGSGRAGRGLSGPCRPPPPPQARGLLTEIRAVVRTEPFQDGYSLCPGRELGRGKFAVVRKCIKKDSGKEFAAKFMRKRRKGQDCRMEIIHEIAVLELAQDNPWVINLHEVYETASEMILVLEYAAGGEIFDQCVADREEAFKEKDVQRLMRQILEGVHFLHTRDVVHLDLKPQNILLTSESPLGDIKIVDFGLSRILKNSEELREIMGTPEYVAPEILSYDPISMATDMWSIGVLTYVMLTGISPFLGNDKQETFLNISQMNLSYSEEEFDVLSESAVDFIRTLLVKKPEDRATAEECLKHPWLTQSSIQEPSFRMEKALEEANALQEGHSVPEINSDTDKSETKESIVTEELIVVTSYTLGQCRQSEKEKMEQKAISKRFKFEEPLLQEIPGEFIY

**Q.** For O=C(N[C@@H](C1CC1)C(F)(F)F)c1cc(-c2cnn3cc(-c4ccc(F)cc4)cnc23)cs1, which IC50 [1] is on record?
**A.** 14 nM

**Q.** What about the inhibition [2] of the same compound?
**A.** 7%

**Q.** And the fold change (FC) [3]?
**A.** 0

**Q.** What about the fold change (FC) [4] of the same compound?
**A.** 0

**Q.** What about the fold change (FC) [5] of the same compound?
**A.** 0

**Q.** With CC(C)[C@H](NC(=O)c1cc(-c2cnn3cc(-c4ccc(OCCN5CCCCC5)cc4)cnc23)cs1)C(F)(F)F as the compound, how does the inhibition [6] read?
**A.** 0%

**Q.** And the fold change (FC) [7]?
**A.** 0

**Q.** What about the fold change (FC) [8] of the same compound?
**A.** 0

**Q.** With CNC(=O)c1ccccc1Oc1nc(Nc2cc(OC)c(OC)c(OC)c2)ncc1Br as the compound, how does the inhibition [9] read?
**A.** 0%

**Q.** What about the inhibition [10] of the same compound?
**A.** 0%
